According to patent publication US20240262819A1, “NOVEL COMPOUNDS HAVING INHIBITORY ACTIVITY AGAINST GLUCOSYLCERAMIDE SYNTHASE OR PHARMACEUTICALLY ACCEPTABLE SALT THEREOF, PROCESSES FOR PREPARING THE SAME, AND PHARMACEUTICAL COMPOSITIONS COMPRISING THE SAME” (YUHAN CORPORATION, priority 2021, published 2024):
Like-named read-outs stand apart in the source and are kept apart here.

Tests used:
[1] = target: glucosylceramide synthase (GCS) (Homo sapiens (Human), UniProt Q16739); experiment: Evaluation of inhibitory activities against GCS (A549 cell lysate, NBD C6-ceramide, HPLC); type: biochemical
glucosylceramide synthase (GCS), sequence (Q16739 whole entry): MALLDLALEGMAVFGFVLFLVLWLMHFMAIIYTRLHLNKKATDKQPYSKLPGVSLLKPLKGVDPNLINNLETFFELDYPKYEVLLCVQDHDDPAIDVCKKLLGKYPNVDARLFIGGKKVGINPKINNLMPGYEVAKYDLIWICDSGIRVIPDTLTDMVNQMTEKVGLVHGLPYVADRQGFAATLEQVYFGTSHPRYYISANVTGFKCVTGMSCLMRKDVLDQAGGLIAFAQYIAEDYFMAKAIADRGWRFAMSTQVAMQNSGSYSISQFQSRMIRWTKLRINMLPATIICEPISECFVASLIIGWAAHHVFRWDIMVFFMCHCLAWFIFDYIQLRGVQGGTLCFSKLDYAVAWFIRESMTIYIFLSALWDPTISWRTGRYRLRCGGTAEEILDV
Procedure: The inhibitory activities of the compounds of the present invention against GCS were evaluated, as follows, according to the method described in the known literature (Hayashi Y et al., A sensitive and reproducible assay to measure the activity of glucosylceramide synthase and lactosylceramide synthase using HPLC and fluorescent substrates, Analytical Biochemistry 345 (2005) 181-186). Ibiglustat, known as a GCS inhibitor, was used as a control.
After the cells attached to the culture dish were washed with phosphate buffered saline (PBS), the cells were scraped off with a cell scraper and then centrifuged (4000 rpm, 3 min, 4 °C) to collect the cells in a 50 ml tube. The cell pellets were suspended in a lysis buffer (50 mM HEPES, pH 7.3, containing 1× the protease/phosphatase inhibitor cocktail), lysed by sonication, and then the lysate was centrifuged (13000 rpm, 10 min, 4° C.). The obtained supernatant was used for the quantitative analysis of proteins. The amount of proteins was measured using the BCA protein assay kit, using bovine serum albumin as a standard.
Enzymatic reactions were initiated by sequentially adding the following reaction materials to a 96 deep-well plate. Thereafter, the enzymatic reactions were performed at 37° C. for 90 minutes.
The enzymatic reactions were stopped by adding 100 μl of chloroform/methanol (2:1, v/v). […] The lower layer (50 μl) was transferred to a new 96 deep-well plate and dried with a reduced concentrator.
Lipids were dissolved in 100 μl of isopropyl alcohol/n-hexane/H2O (55:44:1, v/v/v) and then transferred to a glass vial for HPLC (Agilent, 8004-HP-H/i3u). The sample (100 μl) was automatically loaded onto a normal-phase column (Intersil SIL 150A-5, 4.6×250 mm, GL Sciences, Japan) and then eluted at a flow rate of 2.0 ml/min with isopropyl alcohol/n-hexane/H2O (55:44:1, v/v/v). The fluorescence thereof was measured with a fluorescence detector (Agilent, 1260 FLD Spectra), using 470 nm and 530 nm as excitation and emission wavelengths, respectively.
Data analysis was performed by the following equations.
% Area (Sample)=Area (GlcCer)/[Area (Cer)+Area (GlcCer)]×100%
GCS activity=[Area (Sample)−Area (ibiglustat)]/[Area (DMSO)−Area (ibiglustat)]×100
The obtained % GCS activity data was analyzed with the software GraphPad Prism (Ver 5.01) to calculate the IC50 values.

[2] = tested on: GM1 production in Jurkat cells; experiment: cells; type: cell-based
[3] = Evaluation of blood-brain barrier (BBB) permeability through oral administration; type: in vivo, mice; conditions: mouse, in vivo, mice, oral, dose 30 mg/kg, 4 hr; for Kp at 4 h: read-out: Mean brain-plasma drug ratio at 4 hr
Procedure: The blood-brain barrier (BBB) permeability was evaluated in mice, with respect to the compounds according to the present invention and the control (ibiglustat). Each compound of the present invention and the control were suspended in 0.5% methyl cellulose containing 0.2% Tween 80 and then orally administered to mice at a dose of 10 or 30 mg/10 ml/kg. After the whole blood was collected from the heart of each mouse at the time of 4 hours after the administration, it was placed in a lithium heparin tube and immediately centrifuged to obtain the plasma. After the exsanguination was carried out through abdominal vena cava incision, the forebrain was taken by dissection of the head. Both of the forebrain and the plasma were stored in a −80° C. freezer until the analysis of drug concentrations therein. For the analysis of drug concentrations therein, the forebrain was immersed in distilled water and then homogenized with a homogenizer to obtain a homogenate. Each plasma and homogenate was treated with acetonitrile to precipitate proteins, vortexed for 15 seconds, and then centrifuged (12700 rpm, 10 min, 4° C.). The obtained supernatant was diluted with an 80% aqueous solution of acetonitrile containing 0.1% formic acid and then analyzed with an LC-MS/MS instrument. LC-MS/MS analysis was carried out with a reversed-phase column, using distilled water containing 0.1% formic acid and acetonitrile as mobile phases. Each eluted material was detected through a mass spectrometer to calculate the drug concentrations thereof. The brain-plasma drug ratio (B/P ratio) was calculated from the drug concentrations in each tissue to evaluate the blood-brain barrier (BBB) permeability.

[4] = % GCS activity, A549 cell lysate, 37° C. for 90 minutes, read-out: IC50
[5] = read-out: Mean drug concentrations in brain tissue at 4 hr
[6] = read-out: Mean drug concentrations in plasma at 4 hr

SMILES	IC50 [1]	IC50 ([2]; Homo sapiens, Jurkat, 72 h)	also measured
CCc1ccc(-c2ccc3c(c2)CC(C)(C)[C@H]3NC(=O)O[C@@H]2CN3CCC2CC3)cc1F [Example 33, (S)-quinuclidin-3-yl((R)-5-(4-ethyl-3-fluorophenyl)-2,2-dimethyl-2,3-dihydro-1H-inden-1-yl)carbamate]	0.97 nM	7.3 nM	–
CC(C)Oc1c(F)cc(-c2ccc3c(c2)CC(C)(C)[C@H]3NC(=O)O[C@@H]2CN3CCC2CC3)cc1F [Example 37, (S)-quinuclidin-3-yl((R)-5-(3,5-difluoro-4-isopropoxyphenyl)-2,2-dimethyl-2,3-dihydro-1H-inden-1-yl)carbamate]	1.94 nM	2.2 nM	–
CC(C)Oc1c(Cl)cc(-c2ccc3c(c2)CC(C)(C)[C@H]3NC(=O)O[C@@H]2CN3CCC2CC3)cc1Cl [Example 40, (S)-quinuclidin-3-yl((R)-5-(3,5-dichloro-4-isopropoxyphenyl)-2,2-dimethyl-2,3-dihydro-1H-inden-1-yl)carbamate]	3.21 nM	1.6 nM	–
CC(C)(C)Oc1ccc(-c2ccc3c(c2)CC(C)(C)[C@H]3NC(=O)O[C@@H]2CN3CCC2CC3)cc1 [Example 41, (S)-quinuclidin-3-yl((R)-5-(4-(tert-butoxy)phenyl)-2,2-dimethyl-2,3-dihydro-1H-inden-1-yl)carbamate]	0.9 nM	13.6 nM	–
CC(C)(C)Oc1ccc(-c2ccc3c(c2)CC(C)(C)[C@H]3NC(=O)O[C@@H]2CN3CCC2CC3)c(Cl)c1 [Example 42, (S)-quinuclidin-3-yl((R)-5-(4-(tert-butoxy)-2-chlorophenyl)-2,2-dimethyl-2,3-dihydro-1H-inden-1-yl)carbamate]	0.3 nM	2.6 nM	–
CCOc1ccc(-c2ccc3c(c2)CC(C)(C)[C@H]3NC(=O)O[C@@H]2CN3CCC2CC3)cc1C [Example 46, (S)-quinuclidin-3-yl((R)-5-(4-ethoxy-3-methylphenyl)-2,2-dimethyl-2,3-dihydro-1H-inden-1-yl)carbamate]	2.19 nM	11.6 nM	–
CCCOc1ccc(-c2ccc3c(c2)CC(C)(C)[C@H]3NC(=O)O[C@@H]2CN3CCC2CC3)cc1C [Example 47, (S)-quinuclidin-3-yl((R)-2,2-dimethyl-5-(3-methyl-4-propoxyphenyl)-2,3-dihydro-1H-inden-1-yl) carbamate]	–	–	IC50 [1, 4]: 1.89 nM; IC50 ([2]; read-out: IC50): 7.7 nM
Cc1cc(-c2ccc3c(c2)CC(C)(C)[C@H]3NC(=O)O[C@@H]2CN3CCC2CC3)ccc1OC(F)F [Example 48, (S)-quinuclidin-3-yl((R)-5-(4-(difluoromethoxy)-3-methylphenyl)-2,2-dimethyl-2,3-dihydro-1H-inden-1-yl)carbamate]	1.3 nM	13.9 nM	–
CC(C)Oc1cc(F)cc(-c2ccc3c(c2)CC(C)(C)[C@H]3NC(=O)O[C@@H]2CN3CCC2CC3)c1 [Example 49, (S)-quinuclidin-3-yl((R)-5-(3-fluoro-5-isopropoxyphenyl)-2,2-dimethyl-2,3-dihydro-1H-inden-1-yl)carbamate]	0.58 nM	9.4 nM	–
CC(C)COc1cc(F)cc(-c2ccc3c(c2)CC(C)(C)[C@H]3NC(=O)O[C@@H]2CN3CCC2CC3)c1 [Example 50, (S)-quinuclidin-3-yl((R)-5-(3-fluoro-5-isobutoxyphenyl)-2,2-dimethyl-2,3-dihydro-1H-inden-1-yl)carbamate]	0.44 nM	2.2 nM	–
CC1(C)Cc2cc(-c3cc(F)cc(OCC(F)(F)F)c3)ccc2[C@@H]1NC(=O)O[C@@H]1CN2CCC1CC2 [Example 51, (S)-quinuclidin-3-yl((R)-5-(3-fluoro-5-(2,2,2-trifluoroethoxy)phenyl)-2,2-dimethyl-2,3-dihydro-1H-inden-1-yl) carbamate]	–	–	IC50 [1, 4]: 0.65 nM; IC50 ([2]; read-out: IC50): 9.1 nM
CC(C)Oc1cc(-c2ccc3c(c2)CC(C)(C)[C@H]3NC(=O)O[C@@H]2CN3CCC2CC3)ccc1Cl [Example 52, (S)-quinuclidin-3-yl((R)-5-(4-chloro-3-isopropoxyphenyl)-2,2-dimethyl-2,3-dihydro-1H-inden-1-yl)carbamate]	8.27 nM	36.7 nM	–
CC(C)COc1cc(Cl)cc(-c2ccc3c(c2)CC(C)(C)[C@H]3NC(=O)O[C@@H]2CN3CCC2CC3)c1 [Example 53, (S)-quinuclidin-3-yl((R)-5-(3-chloro-5-isobutoxyphenyl)-2,2-dimethyl-2,3-dihydro-1H-inden-1-yl)carbamate]	0.67 nM	4.1 nM	–
CC(C)Oc1cc(Cl)cc(-c2ccc3c(c2)CC(C)(C)[C@H]3NC(=O)O[C@@H]2CN3CCC2CC3)c1 [Example 54, (S)-quinuclidin-3-yl((R)-5-(3-chloro-5-isopropoxyphenyl)-2,2-dimethyl-2,3-dihydro-1H-inden-1-yl)carbamate]	0.59 nM	8.6 nM	–
CC1(C)Cc2cc(-c3ccc(OCC(F)(F)F)cc3Cl)ccc2[C@@H]1NC(=O)O[C@@H]1CN2CCC1CC2 [Example 55, (S)-quinuclidin-3-yl((R)-5-(2-chloro-4-(2,2,2-trifluoroethoxy)phenyl)-2,2-dimethyl-2,3-dihydro-1H-inden-1-yl)carbamate]	0.63 nM	2.2 nM	–
CCCOc1ccc(-c2cc3c(cc2F)[C@H](NC(=O)O[C@@H]2CN4CCC2CC4)C(C)(C)C3)cc1 [Example 69, (S)-quinuclidin-3-yl((R)-6-fluoro-2,2-dimethyl-5-(4-propoxyphenyl)-2,3-dihydro-1H-inden-1-yl)carbamate]	–	1.1 nM	Kp at 4 h [3]: 9.84; concentration at 4 h [3, 5]: 4140 ng/g; concentration at 4 h [3, 6]: 433 ng/mL
CCCc1cccc(-c2cc3c(cc2F)[C@H](NC(=O)O[C@@H]2CN4CCC2CC4)C(C)(C)C3)c1 [Example 72, (S)-quinuclidin-3-yl((R)-6-fluoro-2,2-dimethyl-5-(3-propylphenyl)-2,3-dihydro-1H-inden-1-yl)carbamate]	1.19 nM	15.9 nM	–
COc1ccc(-c2cc3c(cc2F)[C@H](NC(=O)O[C@@H]2CN4CCC2CC4)C(C)(C)C3)cc1 [Example 82, (S)-quinuclidin-3-yl((R)-6-fluoro-5-(4-methoxyphenyl)-2,2-dimethyl-2,3-dihydro-1H-inden-1-yl)carbamate]	–	20.3 nM	Kp at 4 h [3]: 6.32; concentration at 4 h [3, 5]: 5520 ng/g; concentration at 4 h [3, 6]: 896 ng/mL
COc1ccc(-c2cc3c(cc2F)[C@H](NC(=O)O[C@@H]2CN4CCC2CC4)C(C)(C)C3)cc1Cl [Example 85, (S)-quinuclidin-3-yl((R)-5-(3-chloro-4-methoxyphenyl)-6-fluoro-2,2-dimethyl-2,3-dihydro-1H-inden-1-yl)carbamate]	0.818 nM	66.7 nM	–
CCOc1ccc(-c2cc3c(cc2F)[C@H](NC(=O)O[C@@H]2CN4CCC2CC4)C(C)(C)C3)cc1F [Example 90, (S)-quinuclidin-3-yl((R)-5-(4-ethoxy-3-fluorophenyl)-6-fluoro-2,2-dimethyl-2,3-dihydro-1H-inden-1-yl)carbamate]	–	26.4 nM	Kp at 4 h [3]: 7.42; concentration at 4 h [3, 5]: 6480 ng/g; concentration at 4 h [3, 6]: 874 ng/mL
COc1ccc(-c2cc3c(cc2F)[C@H](NC(=O)O[C@@H]2CN4CCC2CC4)C(C)(C)C3)c(Cl)c1 [Example 103, (S)-quinuclidin-3-yl((R)-5-(2-chloro-4-methoxyphenyl)-6-fluoro-2,2-dimethyl-2,3-dihydro-1H-inden-1-yl)carbamate]	–	5.6 nM	Kp at 4 h [3]: 2.76; concentration at 4 h [3, 5]: 4680 ng/g; concentration at 4 h [3, 6]: 1700 ng/mL
